Results on 2 compounds are retold here after article PMC6243750, “Behavioral Evidence and Olfactory Reception of a Single Alarm Pheromone Component in Halyomorpha halys” (Frontiers in Physiology, 2018).

Each structure is given as a SMILES string.

The target in assay [1] is T1, H. halys OBP16 (Halyomorpha halys, UniProt A0A1L2JGT7).
T1 sequence (A0A1L2JGT7 23-177): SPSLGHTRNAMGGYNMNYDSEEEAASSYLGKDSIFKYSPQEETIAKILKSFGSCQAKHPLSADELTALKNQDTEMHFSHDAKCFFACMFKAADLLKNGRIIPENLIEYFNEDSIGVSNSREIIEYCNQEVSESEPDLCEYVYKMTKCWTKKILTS
Put plainly: Fluorescence binding of probe 1-NPN to OBP (Scatchard). The conditions noted are these: dissociation constant of OBP16/1-NPN, 2 μM OBP, 50 mM Tris-HCl pH 7.4; read-out: KOBPx/1-NPN. How it is done:
(§1) Emission fluorescence spectra were measured on a HORIBA FluoromMax®-4 fluorescence spectrophotometer in a right-angle configuration with a 1 cm light path quartz cuvette. The protein was dissolved in 50 mM Tris-HCl buffer, pH 7.4, while all ligands used in binding experiments were used as 1 mM methanol solutions. The excitation wavelength was 337 nm, and the range of the scanning emission wavelength was 380–450 nm.
(§2) The binding constants of OBPs with probe N-phenyl-1-naphtylamine (1-NPN) were determined. We first added 2 ml 50 mM Tris-HCl solution to the cuvette, then added the OBP until the concentration reached 2 μM, measured and recorded the emission spectrum, continued titration, and recorded the highest stable fluorescence intensity. The Scatchard equation was used to record the binding constant of each OPB with 1-NPN.

In assay [2] the target is T2, H. halys OBP25 (Halyomorpha halys, UniProt A0A1L2JGT3).
T2 sequence (A0A1L2JGT3 20-148): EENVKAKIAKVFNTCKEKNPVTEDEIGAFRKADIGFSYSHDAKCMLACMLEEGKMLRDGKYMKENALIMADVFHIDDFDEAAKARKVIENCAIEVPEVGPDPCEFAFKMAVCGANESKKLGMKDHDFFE
The description is as above. Conditions: dissociation constant of OBP25/1-NPN, 2 μM OBP, 50 mM Tris-HCl pH 7.4; read-out: KOBPx/1-NPN. As for the experimental part:
as §1, §2

In assay [3] the target is T3, H. halys OBP30 (Halyomorpha halys, UniProt A0A1P8P1N8).
T3 sequence (A0A1P8P1N8 19-136): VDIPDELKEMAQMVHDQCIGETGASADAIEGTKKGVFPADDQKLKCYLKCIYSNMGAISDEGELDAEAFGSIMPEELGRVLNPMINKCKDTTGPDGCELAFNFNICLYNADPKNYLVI
Described as above. Conditions: dissociation constant of OBP30/1-NPN, 2 μM OBP, 50 mM Tris-HCl pH 7.4; read-out: KOBPx/1-NPN. How it is done:
as §1, §2

The target in assay [4] is T4, H. halys OBP4 (Halyomorpha halys, UniProt A0A1L2JGP5).
T4 sequence (A0A1L2JGP5 20-212): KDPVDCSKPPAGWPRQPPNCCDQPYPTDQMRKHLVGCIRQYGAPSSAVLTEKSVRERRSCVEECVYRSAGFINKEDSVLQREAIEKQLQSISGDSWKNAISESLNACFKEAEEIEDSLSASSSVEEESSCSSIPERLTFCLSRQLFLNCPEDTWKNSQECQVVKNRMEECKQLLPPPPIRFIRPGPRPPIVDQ
The assay is described as above. Conditions: dissociation constant of OBP4/1-NPN, 2 μM OBP, 50 mM Tris-HCl pH 7.4; read-out: KOBPx/1-NPN. How it is done: as §1, §2

Assay [5] concerns the target T5, H. halys OBP8 (Halyomorpha halys, UniProt A0A1N7TMV1).
T5 sequence (A0A1N7TMV1 23-143): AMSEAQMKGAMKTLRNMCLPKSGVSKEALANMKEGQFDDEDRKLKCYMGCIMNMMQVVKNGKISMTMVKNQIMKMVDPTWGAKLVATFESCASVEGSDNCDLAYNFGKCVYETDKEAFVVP
The description is as above. The conditions noted are these: dissociation constant of OBP8/1-NPN, 2 μM OBP, 50 mM Tris-HCl pH 7.4; read-out: KOBPx/1-NPN. How it is done: as §1, §2

Assay [6] addresses T1, H. halys OBP16. Briefly: Competitive fluorescence-binding assay with 1-NPN as probe. How it is done:
as §1
(§3) The binding abilities of the OBPs and (E)-2-decenal were later investigated. Fluorescence intensities were automatically subtracted from blank fluorescence values when harvested from instrument. The excitation wavelength was set at 337 nm, and the range of the scanning emission wavelength was 380–450 nm. First, 2 mL 50-mM Tris-HCl solution was added, and then the OBP and 1-NPN were added until the concentration was 2 μM. The highest stable fluorescence intensity was record. Then, we added the (E)-2-decenal, which was dissolved in methanol in the cuvette, and continued the titration from 2 μM until the fluorescence intensity was stable. The highest stable fluorescence intensity was recorded. Each OBP was tested three times. The dissociation constant was calculated based on the formula Kd = [IC50]/(1 + [1-NPN]/K1−NPN), where IC50 represents the (E)-2-decenal concentration when the fluorescence intensity of [OBP/1-NPN] declined to the half of the highest value, [1-NPN] represents the dissociative concentration of 1-NPN, and K1−NPN represents the dissociation constant of OBP/1-NPN.

Assay [7] deals with T2, H. halys OBP25. The assay is described as above. How it is done: as §1, §3
In assay [8] the target is T3, H. halys OBP30. The description is as above. How it is done:
as §1, §3

Assay [9] concerns the target T4, H. halys OBP4. The assay is described as above. How it is done:
as §1, §3

The target in assay [10] is T5, H. halys OBP8. Described as above. As for the experimental part:
as §1, §3

A further assay relates to H. halys antennae. Put plainly: EAG recordings on excised antennae. More on the design: species or system Halyomorpha halys. Conditions: 10 μg dose, all developmental stages, versus n-hexane control. As for the experimental part: EAG recordings were used to identify electrophysiological activities of H. halys at each developmental stage (female and male adults, and nymphal larvae). Each antenna of the brown marmorated stink bug was prepared following the standard procedures of cutting its tip and base and immediately mounting the excised antenna between two glass capillary Ag/AgCl electrodes filled with Kaissling saline (Tang et al., [2016]). The electrode at the distal end of the antenna was connected through an interface box to a signal acquisition interface board (IDAD; Syntech, Netherlands).
n-Hexane was used as the control, and 1 μg/μl (E)-2-decenal was used as the test solution. The measure dose was 10 μg, and the order of antennal exposure was air, n-hexane, and (E)-2-decenal. In total, 10 replicates were used. The direct voltage was 2 mv, the continuous flow velocity was 150 ml/min, the stimulated flow velocity was 20 ml/min, the stimulation time was 0.1 s, and the stimulus intervals were 10 s.
The following equation was used to calculate the EAG recording result:
Relative response value = sample response value − control response value.

The next assay relates to H. halys adults. Put plainly: Grouped dispersal (repellency) test. The class given is in vivo, Halyomorpha halys. Conditions: 10 μg, 60 s. How it is done: A group test was performed first to assess the repellency of (E)-2-decenal to H. halys adults. In total, 10–20 adults were collected and moved into a plastic rearing box for 1 h to let the adults aggregate and rest before the test. A filter paper loaded with 10 μg (E)-2-decenal was then put into a syringe, and the volatile was released into the air at a distance of 1 cm from the aggregated H. halys adults. The test lasted for 60 s, and the number of dispersed H. halys were counted and recorded. n-Hexane was used as the control following the same protocol. In total, 10 replicates were performed for each treatment.

In assay [11] the test system is H. halys adults and 1st to 5th instar nymphs. Briefly: Route test with individual stink bugs on circular track. The class given is in vivo, Halyomorpha halys. As for the experimental part: To identify the alarm pheromone activity in each developmental stage of H. halys (female and male adults, and 1st to 5th instar nymphs), we performed a behavioral test (Noge et al., [2015]) using a gradient of (E)-2-decenal solutions (10 μg/μl, 1 μg/μl, 100 ng/μl, 10 ng/μl, and 1 ng/μl) for the nymphs and the last four doses for both genders of adults. A circular track was made by joining the ends of a silicone tube (100 cm long, 1.2 cm inner diameter), and the track was placed on a tripod stand in the behavioral testing laboratory (25°C ± 1°C, relative humidity = 50% ± 10%). An individual H. halys was placed gently on the track and left for 5 min until it was motionless. Different 10-μl concentrations of (E)-2-decenal were loaded onto a filter paper disk (2 cm diameter), and the disk was then placed 2 mm from the stink bug's antenna. The time taken for the nymph or adult stink bug to change direction and the distance it moved away from the starting point within 15 s were observed and recorded. […] Every developmental stage of H. halys for each chemical treatment was tested 15 times.

A further assay has as its system male and female H. halys. Details: method as in Zhong et al., 2017. The conditions noted are these: ref Zhong et al., 2017; cited from earlier work.
For the next assay, the system named is adult N. viridula. Details: method as in Lockwood and Story, 1987. The conditions noted are these: ref Lockwood and Story, 1987; cited from earlier work.
The next assay relates to H. halys. Details: method as in Zhang et al., 2014a. Conditions: combined with tridecane; ref Zhang et al., 2014a; cited from earlier work.
For another assay, the system named is entomopathogenic fungi. Details: method as in Weber et al., 2017b. Conditions: ref Weber et al., 2017b; cited from earlier work.
Setting [12] is: Kd = [IC50]/(1 + [1-NPN]/K1-NPN), OBP and 1-NPN 2 μM.
Setting [13] is: concentration at which [OBP/1-NPN] fluorescence declined to half.

Consider `c1ccc(Nc2cccc3ccccc23)cc1` [1-NPN, N-phenyl-1-naphtylamine], for which the Kd turned out to be 1.13 ± 0.08 µM on H. halys OBP16 [1]; 0.51 ± 0.3 µM on H. halys OBP25 [2]; 2.79 ± 0.74 µM at H. halys OBP30 [3]; 9.18 ± 2.67 µM on H. halys OBP4 [4]; 2.74 ± 0.8 µM on H. halys OBP8 [5].

Broadly, the IC50 is the midpoint of a concentration-inhibition curve. Read a low IC50 as greater potency in that assay. With `CCCCCCC/C=C/C=O` [(E)-2-decenal], the Kd on H. halys OBP16 [6] (setting [12]) came out at 6.16 ± 0.42 µM; on H. halys OBP25 [7] (setting [12]), 2.21 ± 0.064 µM; on H. halys OBP30 [8] (setting [12]) it was 10.5 ± 0.64 µM; at H. halys OBP4 [9] (OBP4, Kd = [IC50]/(1 + [1-NPN]/K1-NPN), OBP and 1-NPN 2 μM), 26 ± 3.01 µM; on H. halys OBP8 [10] (setting [12]), 8.61 ± 0.24 µM. Further, the IC50 on H. halys OBP16 [6] (setting [13]) came out at 13.7 ± 0.94 µM; on H. halys OBP25 [7] (setting [13]), 7.18 ± 0.21 µM; on H. halys OBP30 [8] (setting [13]) it was 16.7 ± 1.01 µM; on H. halys OBP4 [9] (OBP4, concentration at which [OBP/1-NPN] fluorescence declined to half), 31.3 ± 3.61 µM; on H. halys OBP8 [10] (setting [13]), 13.7 ± 0.38 µM. For the same compound, the “binding activity to (E)-2-decenal” value at H. halys OBP4 [9] (OBP4, in words) was “did not show a good binding activity”. In addition, the EAG responses result in the assay on H. halys antennae is “significantly greater electrophysiological responses compared with the n-hexane control, except for the 1st instar nymphs”. The compound also displayed a Repellent rates in the assay with H. halys adults of 84.1 ± 5.14%. Besides, the “repellence compared with n-hexane control” value in assay [11] (1 μg and 10 μg, all stages of H. halys) is given as “significantly repelled”. Further, the “moving distances compared with n-hexane control” value in assay [11] (3rd to 5th instar nymphs, all tested doses, within 15 s) is reported as “significantly longer moving distances”. For the same compound, the “repellent effect starting at a tested dose” value in [11] (5th instar nymphs, response time) worked out at 10 ng. The “repellence in Y-tube assays” value in the assay on male and female H. halys is “strongly repel”. For the same compound, the alarm effects entry in the assay with adult N. viridula is recorded as “no alarm effects”. The feeding deterrence result in the assay on H. halys was “strong feeding deterrent”. In addition, in the assay with entomopathogenic fungi, the “effect on entomopathogenic fungi” value is “fungistatic effect and inhibits spore germination”.
